Source: the supplement of paper PMC10307832

Legend:
Assay in all cases: relative viability (nuclei count vs DMSO), 5 days (fraction); higher = more cells survive
Nelarabine + Phenformin = compound: COc1nc(N)nc2c1ncn2[C@@H]1O[C@H](CO)[C@@H](O)[C@@H]1O [Nelarabine] + N=C(N)NC(=N)NCCc1ccccc1 [Phenformin] (partner 250 µM)
Summary of the method: (§1)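 Nuclei were stained with Hoechst during a one-step fixation (final 0.05% Triton X-100, 1% formaldehyde, 1 ug/ml Hoechst) carried out 5 days after dosing, then counted on 4× images. The cells, lung cancer lines in 1536-well plates, had been dosed by pin tool the day after seeding with one drug alone or a fixed anchor-drug dose plus five library-drug doses (not always all listed) in √10 steps. Relative viability is the nuclei count in treated wells divided by that in vehicle wells, and each value is the median of duplicate plates.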

Adavosertib + Pictilisib = compound: C=CCn1c(=O)c2cnc(Nc3ccc(N4CCN(C)CC4)cc3)nc2n1-c1cccc(C(C)(C)O)n1 [Adavosertib] + CS(=O)(=O)N1CCN(Cc2cc3nc(-c4cccc5[nH]ncc45)nc(N4CCOCC4)c3s2)CC1 [Pictilisib] (partner 1 µM)
Summary of the method: as §1

Adavosertib + AZD7762 = compound: C=CCn1c(=O)c2cnc(Nc3ccc(N4CCN(C)CC4)cc3)nc2n1-c1cccc(C(C)(C)O)n1 [Adavosertib] + NC(=O)Nc1cc(-c2cccc(F)c2)sc1C(=O)N[C@H]1CCCNC1 [AZD7762] (partner 0.2 µM)
Summary of the method: as §1

Adavosertib + Trametinib = compound: C=CCn1c(=O)c2cnc(Nc3ccc(N4CCN(C)CC4)cc3)nc2n1-c1cccc(C(C)(C)O)n1 [Adavosertib] + CC(=O)Nc1cccc(-n2c(=O)n(C3CC3)c(=O)c3c(Nc4ccc(I)cc4F)n(C)c(=O)c(C)c32)c1 [Trametinib] (partner 0.02 µM)
Summary of the method: as §1

Cell Line | relative viability (Nelarabine + Phenformin; first compound 0.01 µM) | relative viability (Nelarabine + Phenformin; first compound 0.03162 µM) | relative viability (Nelarabine + Phenformin; first compound 0.1 µM) | relative viability (Nelarabine + Phenformin; first compound 0.3162 µM) | relative viability (Nelarabine + Phenformin; first compound 1 µM) | relative viability (Adavosertib + Pictilisib; first compound 0.01 µM) | relative viability (Adavosertib + Pictilisib; first compound 0.03162 µM) | relative viability (Adavosertib + Pictilisib; first compound 0.1 µM) | relative viability (Adavosertib + Pictilisib; first compound 0.3162 µM) | relative viability (Adavosertib + AZD7762; first compound 0.01 µM) | relative viability (Adavosertib + AZD7762; first compound 0.03162 µM) | relative viability (Adavosertib + AZD7762; first compound 0.1 µM) | relative viability (Adavosertib + AZD7762; first compound 0.3162 µM) | relative viability (Adavosertib + Trametinib; first compound 0.01 µM) | relative viability (Adavosertib + Trametinib; first compound 0.03162 µM) | relative viability (Adavosertib + Trametinib; first compound 0.1 µM) | relative viability (Adavosertib + Trametinib; first compound 0.3162 µM)
HCC-44 | 0.194 | 0.157 | 0.173 | 0.167 | 0.185 | 0.518 | 0.647 | 0.526 | 0.62 | 0.989 | 0.971 | 1.02 | 0.902 | 1.08 | 1.05 | 1.19 | 1.12
HOP-62 | 0.787 | 0.508 | 0.696 | 0.777 | 0.667 | 0.771 | 0.891 | 0.762 | 0.961 | 0.697 | 0.382 | 0.364 | 0.116 | 0.357 | 0.406 | 0.356 | 0.384
NCI-H3122 | 0.381 | 0.356 | – | 0.412 | 0.358 | 0.584 | 0.606 | 0.72 | 0.613 | 0.998 | 0.829 | 0.963 | 0.511 | 0.201 | 0.198 | 0.272 | 0.227
NCI-H2405 | 0.385 | 0.395 | 0.357 | 0.383 | 0.26 | 0.466 | 0.412 | 0.437 | 0.373 | – | 0.663 | 0.331 | 0.276 | – | 0.63 | 0.721 | 0.671
UMC-11 | 0.33 | 0.325 | 0.347 | 0.294 | 0.31 | 0.817 | 0.723 | 0.743 | 0.755 | – | – | – | – | 0.74 | 0.633 | 0.743 | 0.615
COR-L 105 | 0.497 | 0.594 | 0.473 | 0.454 | 0.458 | 0.415 | 0.384 | 0.356 | 0.393 | – | – | – | – | 0.436 | 0.463 | 0.48 | 0.347
NCI-H2085 | 0.73 | 0.703 | 0.669 | 0.69 | 0.767 | 0.491 | 0.451 | 0.41 | 0.519 | 0.995 | 0.909 | 0.731 | 0.409 | 0.544 | 0.568 | 0.435 | 0.524
IA-LM | – | – | – | – | – | 0.363 | 0.404 | 0.418 | 0.365 | – | – | – | – | – | – | – | –
NCI-H1792 | 0.211 | 0.4 | 0.261 | 0.3 | 0.323 | 0.294 | 0.224 | 0.233 | 0.272 | 0.683 | 0.652 | 0.452 | 0.135 | 0.378 | 0.505 | 0.448 | 0.42
LK-2 | 0.433 | – | 0.236 | 0.387 | 0.472 | 0.549 | 0.622 | 0.676 | 0.59 | 0.29 | 0.374 | 0.236 | 0.168 | 0.759 | 0.823 | 0.701 | 0.84
NCI-H2009 | 0.555 | 0.518 | 0.479 | 0.532 | 0.47 | 0.766 | 0.847 | 0.68 | 0.395 | – | – | – | – | 0.291 | 0.308 | 0.254 | 0.217
BEN | 0.264 | 0.269 | 0.276 | 0.221 | 0.273 | 0.575 | 0.682 | 0.587 | 0.558 | 0.571 | 0.622 | 0.632 | 0.451 | 1.02 | 1 | 1.27 | 1.18
NCI-H2023 | 0.395 | 0.357 | 0.4 | 0.371 | 0.371 | 0.251 | 0.21 | 0.197 | 0.143 | – | – | – | – | 0.575 | 0.521 | 0.62 | 0.267
NCI-H1703 | – | – | – | – | – | 0.297 | 0.227 | 0.179 | 0.127 | 0.105 | 0.13 | 0.122 | 0.118 | – | – | – | –
NCI-H520 | 0.811 | 0.343 | 0.638 | 0.806 | 0.513 | 0.288 | 0.286 | 0.381 | 0.269 | – | – | – | – | 0.797 | 0.65 | 0.634 | 0.629
SK-LU-1 | 0.564 | 0.364 | 0.553 | 0.679 | 0.499 | 0.649 | 0.532 | 0.456 | 0.242 | – | – | – | – | 0.611 | 0.505 | 0.509 | 0.316
Calu-6 | – | – | – | – | – | 0.922 | 0.875 | 0.788 | 0.333 | – | – | – | – | – | – | – | –
NCI-H1648 | – | – | – | – | – | – | – | – | – | 0.549 | 0.532 | 0.533 | 0.414 | 0.536 | 0.473 | 0.594 | 0.448
NCI-H1623 | 0.44 | 0.508 | 0.584 | 0.544 | 0.545 | – | – | – | – | – | – | – | – | – | – | – | –
NCI-H1563 | 0.707 | 0.665 | 0.63 | 0.73 | 0.665 | 0.631 | 0.62 | 0.609 | 0.625 | – | – | – | – | – | – | – | –
NCI-H522 | 0.727 | 0.661 | 0.594 | 0.716 | 0.728 | – | – | – | – | 0.654 | 0.733 | 0.782 | 0.882 | 0.797 | 0.75 | 0.736 | 0.653
SK-MES-1 | 0.705 | 0.658 | 0.643 | 0.757 | 0.684 | 0.307 | 0.343 | 0.321 | 0.213 | – | – | – | – | 0.556 | 0.576 | 0.529 | 0.486
NCI-H2342 | 0.554 | 0.522 | 0.503 | 0.67 | 0.566 | – | – | – | – | 0.524 | 0.508 | 0.48 | 0.43 | 0.922 | 0.829 | 0.776 | 0.848
NCI-H2228 | 0.434 | 0.244 | – | 0.345 | 0.293 | 0.695 | 0.45 | 0.448 | 0.305 | – | – | – | – | – | 0.498 | 0.465 | 0.404
A549 | 0.209 | 0.116 | 0.161 | 0.119 | 0.143 | 0.505 | 0.513 | 0.554 | 0.382 | – | – | – | – | – | – | – | –
NCI-H661 | 0.282 | 0.277 | 0.276 | 0.274 | 0.258 | 0.33 | 0.415 | 0.352 | 0.322 | – | – | – | – | 0.686 | 0.621 | 0.68 | 0.486
